# PubChem BioAssay (NCI)
#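 Values below derive from 48-hour exposures of cells grown in 96-well plates, with endpoints linearly interpolated between the two concentrations bracketing the appropriate inhibition level. The concentration for 50% growth inhibition is given as GI50. TGI denotes the concentration required for complete inhibition of growth.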
# Columns and labels:
# Assay in all cases: DTP human tumour cell line panel, 48 h
# MALME-3M melanoma = test system: MALME-3M melanoma
# OVCAR-8 ovarian = test system: OVCAR-8 ovarian
# PC-3 prostate = test system: PC-3 prostate
# RPMI-8226 leukemia = test system: RPMI-8226 leukemia
# SNB-19 CNS = test system: SNB-19 CNS
# NCI-H23 lung = test system: NCI-H23 lung
# T-47D breast = test system: T-47D breast
# SK-MEL-28 melanoma = test system: SK-MEL-28 melanoma
# SF-268 CNS = test system: SF-268 CNS
# SR leukemia = test system: SR leukemia
# MOLT-4 leukemia = test system: MOLT-4 leukemia
# MDA-MB-468 breast = test system: MDA-MB-468 breast
# A498 renal = test system: A498 renal
# SK-OV-3 ovarian = test system: SK-OV-3 ovarian
# A549 NSCLC = test system: A549 NSCLC
# SF-539 CNS = test system: SF-539 CNS
# U251 CNS = test system: U251 CNS
# IGROV1 ovarian = test system: IGROV1 ovarian
# SW-620 colon = test system: SW-620 colon
# NCI-H460 lung = test system: NCI-H460 lung
# NCI-H226 lung = test system: NCI-H226 lung
# MCF7 breast = test system: MCF7 breast
# SN12C renal = test system: SN12C renal
# UACC-62 melanoma = test system: UACC-62 melanoma
# SK-MEL-5 melanoma = test system: SK-MEL-5 melanoma
# HCC-2998 colon = test system: HCC-2998 colon
# ACHN renal = test system: ACHN renal
# NCI/ADR-RES ovarian = test system: NCI/ADR-RES ovarian
# HCT-116 colon = test system: HCT-116 colon
# TK-10 renal = test system: TK-10 renal
# DU-145 prostate = test system: DU-145 prostate
# HOP-92 NSCLC = test system: HOP-92 NSCLC
# OVCAR-4 ovarian = test system: OVCAR-4 ovarian
# MDA-MB-435 = test system: MDA-MB-435
# K-562 leukemia = test system: K-562 leukemia
# OVCAR-3 ovarian = test system: OVCAR-3 ovarian
# KM12 colon = test system: KM12 colon
# CAKI-1 renal = test system: CAKI-1 renal
# COLO 205 colon = test system: COLO 205 colon
# OVCAR-5 ovarian = test system: OVCAR-5 ovarian
# BT-549 breast = test system: BT-549 breast
# SF-295 CNS = test system: SF-295 CNS
# NCI-H522 lung = test system: NCI-H522 lung
# HL-60(TB) leukemia = test system: HL-60(TB) leukemia
# HT29 colon = test system: HT29 colon
# RXF 393 renal = test system: RXF 393 renal
# UACC-257 melanoma = test system: UACC-257 melanoma
# 786-0 renal = test system: 786-0 renal
# M14 melanoma = test system: M14 melanoma
# HCT-15 colon = test system: HCT-15 colon
# HOP-62 NSCLC = test system: HOP-62 NSCLC
# LOX IMVI melanoma = test system: LOX IMVI melanoma
# HS 578T breast = test system: HS 578T breast
structure (smiles),measurement,setting,value
CC[C@]12C=CCN3CC[C@@]4(c5ccc(OC)cc5N(C)[C@H]4[C@@](O)(C(=O)OC)[C@@H]1OC(=O)CCCC[P+](c1ccc(OC)cc1)(c1ccc(OC)cc1)c1ccc(OC)cc1)[C@@H]32,GI50,MALME-3M melanoma,1.13 µM
same,TGI,MALME-3M melanoma,2.41 µM
same,GI50,OVCAR-8 ovarian,1.99 µM
same,TGI,OVCAR-8 ovarian,9.6 µM
same,GI50,PC-3 prostate,0.562 µM
same,TGI,PC-3 prostate,5.9 µM
same,GI50,RPMI-8226 leukemia,0.299 µM
same,TGI,RPMI-8226 leukemia,0.969 µM
same,GI50,SNB-19 CNS,0.484 µM
same,TGI,SNB-19 CNS,1.95 µM
same,GI50,NCI-H23 lung,1.19 µM
same,TGI,NCI-H23 lung,4.74 µM
same,GI50,T-47D breast,0.383 µM
same,TGI,T-47D breast,2.83 µM
same,GI50,SK-MEL-28 melanoma,0.486 µM
same,TGI,SK-MEL-28 melanoma,1.73 µM
same,GI50,SF-268 CNS,1.47 µM
same,TGI,SF-268 CNS,3.49 µM
same,GI50,SR leukemia,0.428 µM
same,TGI,SR leukemia,1.7 µM
same,GI50,MOLT-4 leukemia,1.18 µM
same,TGI,MOLT-4 leukemia,3.21 µM
same,GI50,MDA-MB-468 breast,0.264 µM
same,TGI,MDA-MB-468 breast,0.799 µM
same,GI50,A498 renal,2.93 µM
same,TGI,A498 renal,11.4 µM
same,GI50,SK-OV-3 ovarian,1.4 µM
same,TGI,SK-OV-3 ovarian,4.52 µM
same,GI50,A549 NSCLC,1.65 µM
same,TGI,A549 NSCLC,11.5 µM
same,GI50,SF-539 CNS,1.52 µM
same,TGI,SF-539 CNS,5.44 µM
same,GI50,U251 CNS,0.392 µM
same,TGI,U251 CNS,1.45 µM
same,GI50,IGROV1 ovarian,0.548 µM
same,TGI,IGROV1 ovarian,1.86 µM
same,GI50,SW-620 colon,1.06 µM
same,TGI,SW-620 colon,6.43 µM
same,GI50,NCI-H460 lung,1.15 µM
same,TGI,NCI-H460 lung,11.2 µM
same,GI50,NCI-H226 lung,2.03 µM
same,TGI,NCI-H226 lung,7.49 µM
same,GI50,MCF7 breast,0.105 µM
same,TGI,MCF7 breast,0.225 µM
same,GI50,SN12C renal,1.18 µM
same,TGI,SN12C renal,3.07 µM
same,GI50,UACC-62 melanoma,0.963 µM
same,TGI,UACC-62 melanoma,2.2 µM
same,GI50,SK-MEL-5 melanoma,1.6 µM
same,TGI,SK-MEL-5 melanoma,2.95 µM
same,GI50,HCC-2998 colon,0.617 µM
same,TGI,HCC-2998 colon,1.85 µM
same,GI50,ACHN renal,6.28 µM
same,TGI,ACHN renal,19.7 µM
same,GI50,NCI/ADR-RES ovarian,20.5 µM
same,TGI,NCI/ADR-RES ovarian,55.9 µM
same,GI50,HCT-116 colon,1.3 µM
same,TGI,HCT-116 colon,7.76 µM
same,GI50,TK-10 renal,1.67 µM
same,TGI,TK-10 renal,3.8 µM
same,GI50,DU-145 prostate,1.6 µM
same,TGI,DU-145 prostate,12.3 µM
same,GI50,HOP-92 NSCLC,0.52 µM
same,TGI,HOP-92 NSCLC,2.64 µM
same,GI50,OVCAR-4 ovarian,1.57 µM
same,TGI,OVCAR-4 ovarian,11.6 µM
same,GI50,MDA-MB-435,0.521 µM
same,TGI,MDA-MB-435,1.83 µM
same,GI50,K-562 leukemia,0.675 µM
same,TGI,K-562 leukemia,2.53 µM
same,GI50,OVCAR-3 ovarian,0.634 µM
same,TGI,OVCAR-3 ovarian,2.33 µM
same,GI50,KM12 colon,0.675 µM
same,TGI,KM12 colon,1.99 µM
same,GI50,CAKI-1 renal,15.2 µM
same,TGI,CAKI-1 renal,29.8 µM
same,GI50,COLO 205 colon,0.214 µM
same,TGI,COLO 205 colon,0.45 µM
same,GI50,OVCAR-5 ovarian,2.13 µM
same,TGI,OVCAR-5 ovarian,7.15 µM
same,GI50,BT-549 breast,1.25 µM
same,TGI,BT-549 breast,2.6 µM
same,GI50,SF-295 CNS,1.97 µM
same,TGI,SF-295 CNS,5.44 µM
same,GI50,NCI-H522 lung,0.341 µM
same,TGI,NCI-H522 lung,1.25 µM
same,GI50,HL-60(TB) leukemia,0.234 µM
same,TGI,HL-60(TB) leukemia,0.674 µM
same,GI50,HT29 colon,0.511 µM
same,TGI,HT29 colon,2.02 µM
same,GI50,RXF 393 renal,0.524 µM
same,TGI,RXF 393 renal,2.04 µM
same,GI50,UACC-257 melanoma,0.792 µM
same,TGI,UACC-257 melanoma,2.31 µM
same,GI50,786-0 renal,2.59 µM
same,TGI,786-0 renal,8.04 µM
same,GI50,M14 melanoma,1.2 µM
same,TGI,M14 melanoma,2.74 µM
same,GI50,HCT-15 colon,8.79 µM
same,TGI,HCT-15 colon,22.3 µM
same,GI50,HOP-62 NSCLC,2.42 µM
same,TGI,HOP-62 NSCLC,7.12 µM
same,GI50,LOX IMVI melanoma,1.11 µM
same,TGI,LOX IMVI melanoma,2.35 µM
same,GI50,HS 578T breast,1.51 µM
same,TGI,HS 578T breast,4.99 µM
